Measurements reported in the supplement of paper PMC10307832.

What was measured:
Experiment in all cases: relative viability (nuclei count vs DMSO), 5 days (fraction); higher = more cells survive
[1] = compound: COC1=CC(c2cc3ccccc3[nH]2)=N/C1=C\c1[nH]c(C)cc1C [Obatoclax] + O=C(c1cc(Cc2n[nH]c(=O)c3ccccc23)ccc1F)N1CCN(C(=O)C2CC2)CC1 [Olaparib] (partner 8 µM)
In short: (§1)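 Relative viability equals treated-well nuclei counts divided by vehicle-well nuclei counts. Counts came from 4× images of lung cancer cell lines grown in 1536-well plates for 5 days after pin-tool dosing on the day after seeding. Dosing used one drug alone or a fixed anchor-drug dose plus five library-drug doses (not always all listed) in √10 steps, and values are medians of duplicate plates.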

[2] = compound: CC1=CC(=NN1)NC2=CC(=NC(=N2)/C=C/C3=CC=CC=C3)N4CCN(CC4)C + CC1(C)CCC(c2ccc(Cl)cc2)=C(CN2CCN(c3ccc(C(=O)NS(=O)(=O)c4ccc(N[C@H](CCN5CCOCC5)CSc5ccccc5)c(S(=O)(=O)C(F)(F)F)c4)cc3)CC2)C1 [Navitoclax] (partner 0.5 µM)
In short: as §1

[3] = compound: COC1=CC(c2cc3ccccc3[nH]2)=N/C1=C\c1[nH]c(C)cc1C [Obatoclax] + Nc1ncn([C@H]2C[C@H](O)[C@@H](CO)O2)c(=O)n1 [Decitabine] (partner 2 µM)
In short: as §1

[4] = compound: CC1=CC(=NN1)NC2=CC(=NC(=N2)/C=C/C3=CC=CC=C3)N4CCN(CC4)C + COc1cc2c(Oc3ccc(NC(=O)C4(C(=O)Nc5ccc(F)cc5)CC4)cc3F)ccnc2cc1OCCCN1CCOCC1 [Foretinib] (partner 0.25 µM)
In short: as §1

Cell Line | relative viability ([1]; first compound 0.01 µM) | relative viability ([1]; first compound 0.03162 µM) | relative viability ([1]; first compound 0.3162 µM) | relative viability ([1]; first compound 1 µM) | relative viability ([2]; first compound 0.08 µM) | relative viability ([2]; first compound 0.253 µM) | relative viability ([2]; first compound 0.8 µM) | relative viability ([2]; first compound 2.53 µM) | relative viability ([2]; first compound 8 µM) | relative viability ([3]; first compound 0.01 µM) | relative viability ([3]; first compound 0.03162 µM) | relative viability ([3]; first compound 0.1 µM) | relative viability ([3]; first compound 0.3162 µM) | relative viability ([3]; first compound 1 µM) | relative viability ([4]; first compound 0.08 µM) | relative viability ([4]; first compound 0.253 µM) | relative viability ([4]; first compound 0.8 µM) | relative viability ([4]; first compound 2.53 µM) | relative viability ([4]; first compound 8 µM) | relative viability ([1]; first compound 0.1 µM)
HOP-62 | 0.292 | 0.352 | 0.434 | 0.405 | 0.903 | 1.27 | 1.03 | 1 | 0.124 | 0.257 | 0.177 | 0.206 | 0.277 | 0.214 | 1.14 | 1.13 | 1.04 | 0.739 | 0.195 | –
LK-2 | 0.806 | 0.81 | 0.695 | 0.762 | 0.821 | 1.03 | 0.711 | 0.247 | 0.133 | 0.365 | 0.242 | 0.335 | 0.268 | 0.395 | 1.35 | 1.02 | 1 | 0.382 | 0.153 | 0.768
SW 1573 | 0.488 | 0.529 | 0.149 | 0.179 | 0.98 | 1.06 | 0.772 | 0.227 | 0.0461 | 0.432 | 0.434 | 0.437 | 0.139 | 0.194 | 0.847 | 0.993 | 1.1 | 0.536 | 0.151 | 0.363
SK-LU-1 | 0.448 | 0.468 | 0.447 | 0.347 | 0.792 | 0.905 | 0.786 | 0.385 | 0.0813 | 0.682 | 0.567 | 0.454 | 0.478 | 0.363 | 0.756 | 0.821 | 0.671 | 0.177 | 0.0847 | 0.372
NCI-H23 | 0.288 | 0.369 | 0.28 | 0.206 | 0.79 | 0.909 | 0.867 | 0.364 | 0.15 | 0.328 | 0.272 | 0.369 | 0.286 | 0.349 | 0.699 | 0.987 | 0.712 | 0.256 | 0.147 | 0.398
NCI-H1355 | 0.76 | 0.767 | 0.667 | 0.717 | 0.878 | 0.961 | 0.974 | 0.701 | 0.386 | 0.368 | 0.347 | 0.338 | 0.334 | 0.335 | 0.879 | 1.05 | 0.985 | 0.743 | 0.18 | 0.781
COR-L23 | 0.37 | 0.352 | 0.248 | 0.156 | 1.02 | 1.07 | 0.884 | 0.302 | 0.0578 | 0.478 | 0.404 | 0.488 | 0.235 | 0.194 | 0.967 | 1.01 | 0.904 | 0.211 | 0.107 | 0.354
A549 | 0.326 | 0.367 | 0.361 | 0.342 | 1.1 | 1.19 | 0.985 | 0.0304 | 0.0283 | 0.205 | 0.122 | – | 0.282 | 0.309 | 1.03 | 0.914 | 0.616 | 0.0324 | 0.0167 | 0.0867
NCI-H2023 | 0.485 | 0.574 | 0.246 | 0.15 | 0.952 | 1.09 | 0.874 | 0.387 | 0.069 | 0.216 | 0.203 | 0.222 | 0.159 | 0.0785 | 0.719 | 0.974 | 0.832 | 0.362 | 0.0501 | 0.442
A-427 | 0.82 | 0.706 | 0.775 | 0.416 | 1.04 | 1.02 | 0.991 | 0.627 | 0.164 | 0.528 | 0.525 | 0.491 | 0.614 | 0.504 | 0.993 | 1.06 | 0.993 | 0.586 | 0.142 | 0.559
UMC-11 | 0.316 | 0.448 | 0.415 | 0.289 | 0.317 | 0.312 | 0.177 | 0.116 | 0.0909 | 0.608 | 0.536 | 0.475 | 0.573 | 0.41 | 1.06 | 0.908 | 0.466 | 0.17 | 0.13 | 0.43
NCI-H596 | 0.671 | 0.675 | 0.492 | 0.458 | 0.91 | 1.04 | 0.705 | 0.489 | 0.27 | 0.953 | 0.986 | 1.04 | 0.848 | 0.79 | 0.78 | 0.937 | 0.633 | 0.654 | 0.165 | 0.552
LU99A | 0.292 | 0.243 | 0.313 | 0.321 | 0.766 | 0.781 | 0.57 | 0.25 | 0.125 | 0.915 | 0.89 | – | 0.847 | 0.976 | 0.8 | 0.732 | 0.735 | 0.363 | 0.156 | –
NCI-H2009 | 0.687 | 0.712 | 0.573 | 0.26 | 1.19 | 1.09 | 1.13 | 1.12 | 0.212 | 0.371 | 0.384 | 0.358 | 0.305 | 0.213 | 1.22 | 1.22 | 1.23 | 0.493 | 0.217 | 0.705
